Measurements published in patent US9499535B2, “Kinase inhibitors” (ORIGENIS GMBH, priority 2011, dated 2016).

Experiments:
SYK kinase = molecular target: T1, SYK kinase (Homo sapiens, UniProt P43405); experiment: SYK assay (OMNIA Kinase Assay, Invitrogen); type: biochemical; settings: apparent Ki calculated from the IC50 using the Cheng-Prusoff equation; 1 mM ATP, 10 μM Peptide Substrate; read-out: SYK Activities: Ki
T1 construct: purchased Invitrogen, Carlsbad
How it was run: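 Reaction velocities were measured from kinetic fluorescence reads (360/485 nm, every 30 s over 30 min) of Mg2+-chelated SOX signal. Conditions were 1 mM ATP, 10 μM Omnia Tyr 7 peptide and 0.2 mM DTT at 30° C. Sigmoidal IC50 fits were converted to apparent Ki using Cheng-Prusoff.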

MYLK = MYLK (Homo sapiens, UniProt Q15746); experiment: MYLK assay (LanthaScreen Eu Kinase Binding Assay); settings: 5 nM MYLK, 30 nM tracer 236, RT 1 h; read-out: MYLK Activites: IC50
MYLK, sequence (Q15746 whole entry): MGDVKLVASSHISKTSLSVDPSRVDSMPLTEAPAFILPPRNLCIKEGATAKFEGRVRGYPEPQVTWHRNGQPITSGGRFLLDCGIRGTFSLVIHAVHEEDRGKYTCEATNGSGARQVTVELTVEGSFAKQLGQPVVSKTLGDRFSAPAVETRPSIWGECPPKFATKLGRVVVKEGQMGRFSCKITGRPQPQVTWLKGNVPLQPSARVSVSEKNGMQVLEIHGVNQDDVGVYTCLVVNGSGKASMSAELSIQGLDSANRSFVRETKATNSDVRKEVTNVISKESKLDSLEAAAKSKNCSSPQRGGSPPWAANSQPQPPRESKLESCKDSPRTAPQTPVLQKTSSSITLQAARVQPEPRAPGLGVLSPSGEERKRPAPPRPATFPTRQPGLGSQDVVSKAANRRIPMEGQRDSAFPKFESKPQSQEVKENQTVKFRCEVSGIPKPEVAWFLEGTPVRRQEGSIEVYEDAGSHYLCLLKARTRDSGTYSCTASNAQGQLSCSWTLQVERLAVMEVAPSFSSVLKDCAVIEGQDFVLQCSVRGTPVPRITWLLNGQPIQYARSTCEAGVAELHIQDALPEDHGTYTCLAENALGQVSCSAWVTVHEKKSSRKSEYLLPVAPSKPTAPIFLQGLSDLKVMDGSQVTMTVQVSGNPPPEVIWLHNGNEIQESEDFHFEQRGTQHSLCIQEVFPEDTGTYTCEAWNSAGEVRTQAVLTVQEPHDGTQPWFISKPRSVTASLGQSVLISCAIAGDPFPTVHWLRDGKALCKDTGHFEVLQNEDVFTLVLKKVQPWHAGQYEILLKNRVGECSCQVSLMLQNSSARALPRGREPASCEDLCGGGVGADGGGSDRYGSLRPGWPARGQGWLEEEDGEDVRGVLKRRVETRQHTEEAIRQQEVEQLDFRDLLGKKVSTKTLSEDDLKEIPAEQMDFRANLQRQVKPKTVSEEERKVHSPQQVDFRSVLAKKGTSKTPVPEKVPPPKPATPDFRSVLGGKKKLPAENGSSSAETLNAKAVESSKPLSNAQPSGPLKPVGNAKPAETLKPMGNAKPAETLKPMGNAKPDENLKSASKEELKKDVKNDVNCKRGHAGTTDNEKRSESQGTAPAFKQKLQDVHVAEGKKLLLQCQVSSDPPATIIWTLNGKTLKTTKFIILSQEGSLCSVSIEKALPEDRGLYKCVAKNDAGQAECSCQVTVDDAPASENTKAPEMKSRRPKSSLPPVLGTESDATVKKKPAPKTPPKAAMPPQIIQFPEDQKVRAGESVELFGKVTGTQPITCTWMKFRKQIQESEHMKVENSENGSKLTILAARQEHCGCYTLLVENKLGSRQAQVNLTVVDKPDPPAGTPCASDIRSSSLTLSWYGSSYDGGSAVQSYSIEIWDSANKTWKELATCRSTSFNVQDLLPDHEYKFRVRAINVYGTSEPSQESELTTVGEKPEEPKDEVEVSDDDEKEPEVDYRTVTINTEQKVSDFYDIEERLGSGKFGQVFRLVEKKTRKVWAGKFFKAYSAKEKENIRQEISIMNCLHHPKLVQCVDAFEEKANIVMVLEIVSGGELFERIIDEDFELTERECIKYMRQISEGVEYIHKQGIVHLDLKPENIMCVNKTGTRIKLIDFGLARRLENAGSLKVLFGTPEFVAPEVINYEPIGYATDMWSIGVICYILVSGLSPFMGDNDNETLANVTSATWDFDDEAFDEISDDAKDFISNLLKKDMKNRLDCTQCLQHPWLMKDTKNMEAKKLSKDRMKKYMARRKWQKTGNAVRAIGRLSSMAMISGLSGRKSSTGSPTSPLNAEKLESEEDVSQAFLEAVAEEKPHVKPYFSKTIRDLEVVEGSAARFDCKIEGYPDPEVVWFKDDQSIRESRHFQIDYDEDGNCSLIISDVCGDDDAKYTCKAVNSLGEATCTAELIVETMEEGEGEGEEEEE
Method: In the assay LanthaScreen™ Eu Kinase Binding Assay by Invitrogen Corporation (Carlsbad) the effect of invention of a compound on the phosphorylation is determined by measurement of fluorescence intensity emission ratio based on the binding and displacement of a proprietary, Alexa Fluor® 647-labeled, ATP-competitive kinase inhibitor scaffold (kinase tracer) to the kinase of interest as described above.
To the wells of an 384 well small volume plate (Greiner, Frickenhausen) are added (i) the compound under test in 5% DMSO/distilled water (5 μl), (ii) 5 μl of the kinase antibody mixture resulting in a final concentration 5 nM MYLK, 2 nM EU-Anti-GST antibody in 1× kinase buffer A. The reaction was started with addition of (iii) 5 μl resulting in a final concentration of 30 nM tracer 236. The assay plate was incubated at RT for 1 h and fluorescence intensitiy readings were collected using a TECAN M1000 at two wavelengthes of λex 340/λem 615 nm and λex 340/λem 665 nm with a delay time of 100 μs and an integration time of 200 μs after 60 minutes. The emission ratio was calculated by division of the acceptor/tracer emission ([…]) by the antibody/donor emission ([…]). The inhibitor concentration was plotted versus the emission ratio to determine the IC50 using XLFit 5.0 (IDBS, Guildford) to fit to a sigmoidal dose response curve with a variable slope.

LRRK2 = LRRK2 (Homo sapiens, UniProt Q5S007); experiment: LRRK2 assay (LanthaScreen Eu Kinase Binding Assay); settings: 5 nM LRRK2, 10 nM tracer 236, RT 1 h; read-out: LRRK2 Activites: IC50
LRRK2, sequence (Q5S007 970-2527 limits assumed): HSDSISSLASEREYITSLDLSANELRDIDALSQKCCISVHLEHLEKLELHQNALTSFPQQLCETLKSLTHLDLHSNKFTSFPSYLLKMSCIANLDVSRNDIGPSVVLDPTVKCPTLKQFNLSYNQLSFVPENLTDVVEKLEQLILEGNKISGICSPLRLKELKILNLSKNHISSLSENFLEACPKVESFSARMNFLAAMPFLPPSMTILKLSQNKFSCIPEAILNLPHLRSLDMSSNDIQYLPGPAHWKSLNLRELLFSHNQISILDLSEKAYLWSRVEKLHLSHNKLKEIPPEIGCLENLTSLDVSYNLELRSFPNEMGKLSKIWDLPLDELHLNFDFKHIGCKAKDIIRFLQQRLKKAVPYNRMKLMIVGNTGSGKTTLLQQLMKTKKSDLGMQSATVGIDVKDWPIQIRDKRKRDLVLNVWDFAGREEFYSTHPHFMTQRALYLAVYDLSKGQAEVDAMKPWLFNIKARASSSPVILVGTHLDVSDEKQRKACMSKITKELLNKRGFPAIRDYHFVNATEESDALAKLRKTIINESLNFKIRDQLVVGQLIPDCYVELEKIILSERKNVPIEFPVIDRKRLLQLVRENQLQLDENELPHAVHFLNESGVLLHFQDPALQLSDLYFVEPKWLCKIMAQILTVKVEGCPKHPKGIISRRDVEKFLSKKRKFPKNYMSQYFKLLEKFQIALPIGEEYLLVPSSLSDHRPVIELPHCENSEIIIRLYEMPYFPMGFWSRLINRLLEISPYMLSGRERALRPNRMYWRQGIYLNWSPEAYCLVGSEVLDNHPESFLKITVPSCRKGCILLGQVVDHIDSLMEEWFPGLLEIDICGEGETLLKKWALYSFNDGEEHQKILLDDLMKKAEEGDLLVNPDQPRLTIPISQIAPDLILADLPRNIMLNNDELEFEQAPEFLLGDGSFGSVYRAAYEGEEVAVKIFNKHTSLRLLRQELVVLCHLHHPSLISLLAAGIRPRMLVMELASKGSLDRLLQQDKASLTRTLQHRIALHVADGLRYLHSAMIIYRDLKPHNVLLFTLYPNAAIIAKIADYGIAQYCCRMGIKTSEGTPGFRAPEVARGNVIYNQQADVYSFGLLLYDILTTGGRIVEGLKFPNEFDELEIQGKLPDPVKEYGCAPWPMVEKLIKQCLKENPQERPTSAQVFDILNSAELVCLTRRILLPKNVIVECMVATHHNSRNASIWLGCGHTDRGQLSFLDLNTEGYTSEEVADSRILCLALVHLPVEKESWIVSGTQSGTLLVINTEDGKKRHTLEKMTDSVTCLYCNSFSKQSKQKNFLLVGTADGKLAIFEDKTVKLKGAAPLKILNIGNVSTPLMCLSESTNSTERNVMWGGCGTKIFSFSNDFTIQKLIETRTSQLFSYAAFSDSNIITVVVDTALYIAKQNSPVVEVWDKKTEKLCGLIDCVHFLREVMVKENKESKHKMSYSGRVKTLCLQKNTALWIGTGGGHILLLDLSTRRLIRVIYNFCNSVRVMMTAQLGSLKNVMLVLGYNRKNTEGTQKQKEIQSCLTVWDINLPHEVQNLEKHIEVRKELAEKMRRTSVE
How it was run: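 IC50 was derived from a sigmoidal dose-response fit with variable slope, plotting emission ratio against inhibitor concentration. The read-out is loss of FRET between a europium-labelled anti-tag antibody on the kinase and a tracer displaced by inhibitor.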

SMILES	Ki (SYK kinase)	IC50 (MYLK)	IC50 (LRRK2)
COc1cccc2c1nc(Nc1ccc3[nH]c(C)nc3c1)c1n[nH]cc12 [Example #248, (6-Methoxy-2H-pyrazolo[3,4-c]quinolin-4-yl)-(2-methyl-1H-benzoimidazol-5-yl)-amine]	100 to 1000 nM	< 5000 nM	100 to 1000 nM
COCC1CCCN1C(=O)c1ccc(Nc2nc3ccc(OC)cc3c3c[nH]nc23)cc1 (stereo not drawn) [Example #301, (4-((8-methoxy-2H-pyrazolo[3,4-c]quinolin-4-yl)amino)phenyl)(2-(methoxymethyl)pyrrolidin-1-yl)methanone]	10 to 100 nM	< 5000 nM	10 to 100 nM
O=C(O)c1cccc(Nc2nc3ccc(O)cc3c3c[nH]nc23)c1 [Example #296, 3-((8-hydroxy-2H-pyrazolo[3,4-c]quinolin-4-yl)amino)benzoic acid]	100 to 1000 nM	< 5000 nM	100 to 1000 nM
COc1ccc2nc(Nc3ccc(N4CCN(C(C)C)CC4)cc3)c3n[nH]cc3c2c1 [Example #271, [4-(4-Isopropyl-piperazin-1-yl)-phenyl]-(8-methoxy-2H-pyrazolo[3,4-c]quinolin-4-yl)-amine]	< 10 nM	< 5000 nM	10 to 100 nM
COc1cc(OC)c2nc(Nc3ccc(N4CCN(C5CC5)CC4)cc3)c3n[nH]cc3c2c1 [Example #252, [4-(4-Cyclopropyl-piperazin-1-yl)-phenyl]-(6,8-dimethoxy-2H-pyrazolo[3,4-c]quinolin-4-yl)-amine]	100 to 1000 nM	< 5000 nM	100 to 1000 nM
COc1ccc2nc(Nc3ccc(N4CCN(C(C)(C)C)CC4)cc3)c3n[nH]cc3c2c1 [Example #273, [4-(4-tert-Butyl-piperazin-1-yl)-phenyl]-(8-methoxy-2H-pyrazolo[3,4-c]quinolin-4-yl)-amine]	10 to 100 nM	< 5000 nM	100 to 1000 nM
COc1ccc2nc(Nc3ccc(N(C)C4CCN(C)CC4)cc3)c3n[nH]cc3c2c1 [Example #192, N-(8-Methoxy-2H-pyrazolo[3,4-c]quinolin-4-yl)-N′-methyl-N′-(1-methyl-piperidin-4-yl)-benzene-1,4-diamine]	10 to 100 nM	< 5000 nM	10 to 100 nM
COc1ccc2c(c1)nc(Nc1ccc3c(c1)NC(=O)CO3)c1n[nH]cc12 [Example #266, 6-((7-methoxy-2H-pyrazolo[3,4-c]quinolin-4-yl)amino)-2H-benzo[b][1,4]oxazin-3(4H)-one]	< 10 nM	< 5000 nM	10 to 100 nM
COc1cc2nc(Nc3ccc(N4CCOCC4)cc3)c3n[nH]cc3c2cc1OC [Example #133, (7,8-Dimethoxy-2H-pyrazolo[3,4-c]quinolin-4-yl)-(4-morpholin-4-yl-phenyl)-amine]	10 to 100 nM	< 5000 nM	100 to 1000 nM
COc1ccc2nc(Nc3ccc(OC)c(OC)c3)c3n[nH]cc3c2c1 [Example #53, (3,4-Dimethoxy-phenyl)-(8-methoxy-2H-pyrazolo[3,4-c]quinolin-4-yl)-amine]	10 to 100 nM	< 5000 nM	100 to 1000 nM
c1cnc2c(c1)nc(Nc1ccc3[nH]ncc3c1)c1n[nH]cc12 [Example #56, (1H-Indazol-5-yl)-(2H-2,3,5,9-tetraaza-cyclopenta[a]naphthalen-4-yl)-amine]	< 10 nM	< 5000 nM	10 to 100 nM
Cc1[nH]nc2c(Nc3ccc(N4CCN(C)CC4)cc3)nc3ccccc3c12 [Example #208, [4-(4-Methyl-piperazin-1-yl)-phenyl]-(1-methyl-2H-pyrazolo[3,4-c]quinolin-4-yl)-amine]	10 to 100 nM	< 5000 nM	100 to 1000 nM
COc1ccc2nc(Nc3ccc4[nH]cnc4c3)c3n[nH]cc3c2c1 [Example #39, (1H-Benzoimidazol-5-yl)-(8-methoxy-2H-pyrazolo[3,4-c]quinolin-4-yl)-amine]	10 to 100 nM	< 5000 nM	100 to 1000 nM
COc1ccc2nc(Nc3ccc(N4CCN(C5CCCC5)CC4)cc3)c3n[nH]cc3c2c1 [Example #269, [4-(4-Cyclopentyl-piperazin-1-yl)-phenyl]-(8-methoxy-2H-pyrazolo[3,4-c]quinolin-4-yl)-amine]	100 to 1000 nM	< 5000 nM	10 to 100 nM
COc1ccc2nc(Nc3ccc(OC)c(O)c3)c3n[nH]cc3c2c1 [Example #118, 2-Methoxy-5-(8-methoxy-2H-pyrazolo[3,4-c]quinolin-4-ylamino)-phenol]	< 10 nM	< 5000 nM	10 to 100 nM
COc1ccc2nc(Nc3ccc(OC)nc3)c3n[nH]cc3c2c1 [Example #206, (8-Methoxy-2H-pyrazolo[3,4-c]quinolin-4-yl)-(6-methoxy-pyridin-3-yl)-amine]	10 to 100 nM	< 5000 nM	100 to 1000 nM
COc1ccc2nc(Nc3ccc(OCC(=O)O)cc3)c3n[nH]cc3c2c1 [Example #290, 2-(4-((8-methoxy-2H-pyrazolo[3,4-c]quinolin-4-yl)amino)phenoxy)acetic acid]	10 to 100 nM	< 5000 nM	100 to 1000 nM
COc1ccc2nc(Nc3ccc4[nH]ncc4c3)c3n[nH]cc3c2c1 [Example #38, (1H-Indazol-5-yl)-(8-methoxy-2H-pyrazolo[3,4-c]quinolin-4-yl)-amine]	10 to 100 nM	< 5000 nM	100 to 1000 nM
CCN1CCN(c2ccc(Nc3nc4ccc(OC)cc4c4c[nH]nc34)cc2)CC1 [Example #187, [4-(4-Ethyl-piperazin-1-yl)-phenyl]-(8-methoxy-2H-pyrazolo[3,4-c]quinolin-4-yl)-amine]	< 10 nM	< 5000 nM	10 to 100 nM
COc1ccc2nc(Nc3ccc(NCCCN(C)C)nc3)c3n[nH]cc3c2c1 [Example #253, N2-(3-(dimethylamino)propyl)-N5-(8-methoxy-2H-pyrazolo[3,4-c]quinolin-4-yl)pyridine-2,5-diamine]	100 to 1000 nM	< 5000 nM	100 to 1000 nM
COc1ccc2nc(Nc3cccc(N)c3)c3n[nH]cc3c2c1 [Example #44, N-(8-Methoxy-2H-pyrazolo[3,4-c]quinolin-4-yl)-benzene-1,3-diamine]	10 to 100 nM	< 5000 nM	10 to 100 nM
COc1ccc2c(c1)nc(Nc1ccc(N3CCN(C4CC4)CC3)cc1)c1n[nH]cc12 [Example #262, [4-(4-Cyclopropyl-piperazin-1-yl)-phenyl]-(7-methoxy-2H-pyrazolo[3,4-c]quinolin-4-yl)-amine]	10 to 100 nM	< 5000 nM	100 to 1000 nM
COc1ccc(Nc2nc3cc(OC)c(OC)cc3c3c[nH]nc23)cc1OC [Example #122, (3,4-Dimethoxy-phenyl)-(7,8-dimethoxy-2H-pyrazolo[3,4-c]quinolin-4-yl)-amine]	10 to 100 nM	< 5000 nM	100 to 1000 nM
CCN1CCN(c2ccc(Nc3nc4c(OC)cccc4c4c[nH]nc34)cc2)CC1 [Example #239, [4-(4-Ethyl-piperazin-1-yl)-phenyl]-(6-methoxy-2H-pyrazolo[3,4-c]quinolin-4-yl)-amine]	10 to 100 nM	< 5000 nM	100 to 1000 nM
COc1cccc2nc(Nc3cc(C4CC4)[nH]n3)c3n[nH]cc3c12 [Example #199, (5-Cyclopropyl-1H-pyrazol-3-yl)-(9-methoxy-2H-pyrazolo[3,4-c]quinolin-4-yl)-amine]	10 to 100 nM	< 5000 nM	10 to 100 nM
COc1ccc2nc(Nc3ccc(OCCN(C)C)nc3)c3n[nH]cc3c2c1 [Example #245, [6-(2-Dimethylamino-ethoxy)-pyridin-3-yl]-(8-methoxy-2H-pyrazolo[3,4-c]quinolin-4-yl)-amine]	100 to 1000 nM	< 5000 nM	100 to 1000 nM
COc1ccc2nc(Nc3ccc(N4CCN(CC(=O)O)CC4)cc3)c3n[nH]cc3c2c1 [Example #277, 2-(4-(4-((8-methoxy-2H-pyrazolo[3,4-c]quinolin-4-yl)amino)phenyl)piperazin-1-yl)acetic-acid]	10 to 100 nM	< 5000 nM	10 to 100 nM
CN1CCN(c2ccc(Nc3nc4ccc(Br)cc4c4c[nH]nc34)cc2)CC1 [Example #43, (8-Bromo-2H-pyrazolo[3,4-c]quinolin-4-yl)-[4-(4-methyl-piperazin-1-yl)-phenyl]-amine]	< 10 nM	< 5000 nM	100 to 1000 nM
COc1ccc2nc(Nc3cccc(N4CCNCC4)c3)c3n[nH]cc3c2c1 [Example #221, (8-Methoxy-2H-pyrazolo[3,4-c]quinolin-4-yl)-(3-piperazin-1-yl-phenyl)-amine]	100 to 1000 nM	< 5000 nM	100 to 1000 nM
